The target in assay [1] is CB1 receptor (Homo sapiens, UniProt P21554). Briefly: functional activity versus the CB1 receptor. As to conditions: qualitative statement, no method or numbers given. From the text: Without wishing to be restricted by the proposal, this cannabinoid activity may mediate the utility of these compounds for the treatment of metabolic syndrome or the disorders associated with metabolic syndrome.

Assay [2] relates to monoamine uptake, especially serotonin. As to conditions: qualitative, known from U.S. Pat. No. 4,313,896; cited from earlier work.

CB1 receptor, sequence (P21554 whole entry): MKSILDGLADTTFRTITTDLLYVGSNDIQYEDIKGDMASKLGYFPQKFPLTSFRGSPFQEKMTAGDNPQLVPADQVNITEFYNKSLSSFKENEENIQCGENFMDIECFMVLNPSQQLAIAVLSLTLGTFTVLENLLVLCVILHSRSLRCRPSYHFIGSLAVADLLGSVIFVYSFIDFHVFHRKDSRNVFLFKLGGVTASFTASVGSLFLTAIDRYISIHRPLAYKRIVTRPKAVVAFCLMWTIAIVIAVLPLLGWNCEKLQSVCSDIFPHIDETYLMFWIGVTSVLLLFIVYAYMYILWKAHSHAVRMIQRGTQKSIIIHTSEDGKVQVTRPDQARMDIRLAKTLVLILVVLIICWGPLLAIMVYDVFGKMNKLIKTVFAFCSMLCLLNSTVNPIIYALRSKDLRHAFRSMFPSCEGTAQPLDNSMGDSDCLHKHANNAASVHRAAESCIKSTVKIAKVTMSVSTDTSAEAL

For the compound `NCCC(Oc1ccc(C(F)(F)F)cc1)c1ccccc1` (racemic) [Norfluoxetine, 3-(4-trifluoromethylphenoxy)-3-phenylpropylamine], the “functional activity versus the CB1 receptor (mode of action)” value in assay [1] is “antagonist of CB1”. Also, the “block of monoamine uptake” value in assay [2] is “block monoamine uptake, especially serotonin”. `CNCC[C@@H](Oc1ccc(C(F)(F)F)cc1)c1ccccc1` [(R)-fluoxetine]: the “functional activity versus the CB1 receptor (mode of action)” value in assay [1] is recorded as “antagonist of CB1”. As for `CNCC[C@H](Oc1ccc(C(F)(F)F)cc1)c1ccccc1` [(S)-Fluoxetine], the “functional activity versus the CB1 receptor (mode of action)” value in assay [1] is on record as “inverse agonist of CB1”.

The record behind these values is patent US20080140450A1, “Treatment of metabolic syndrome with norfluoxetine” (AMPLA Pharmaceuticals Inc., priority 2006, published 2008).
